≈ marks a conversion by molar mass, not a printed value. Calls of active or inactive are those of the source. No cut-off for these calls is given here.
How the values were obtained:
Pseudomonas aeruginosa [1] = assay: Antimicrobial activity against Pseudomonas aeruginosa Z61 by twofold serial microbroth dilution method; format: functional
Staphylococcus aureus [2] = assay: Antimicrobial activity against methicillin-susceptible Staphylococcus aureus RN4220 by twofold serial microbroth dilution method; format: functional
Escherichia coli [3] = assay: Antimicrobial activity against Escherichia coli UB1005 by twofold serial microbroth dilution method; format: functional
Escherichia coli [4] = assay: Antimicrobial activity against Escherichia coli DC2 by twofold serial microbroth dilution method; format: functional
Staphylococcus aureus [5] = assay: Antimicrobial activity against methicillin-resistant Staphylococcus aureus SAP00017 by twofold serial microbroth dilution method; format: functional
Pseudomonas aeruginosa [6] = assay: Antimicrobial activity against Pseudomonas aeruginosa K799 by twofold serial microbroth dilution method; format: functional
Bacillus subtilis = assay: Antimicrobial activity against Bacillus subtilis UBC221 by twofold serial microbroth dilution method; format: functional
Mycobacterium avium [7] = assay: Antimycobacterial activity against isoniazid-resistant Mycobacterium avium at 100 ug/disk by disk diffusion assay; format: functional, organism-based
Candida albicans = assay: Antimicrobial activity against Candida albicans UBC54 by twofold serial microbroth dilution method; format: functional
[8] = tested on: Mycobacterium tuberculosis; assay: Antimycobacterial activity against Mycobacterium tuberculosis at 20 ug/disk by disk diffusion assay; format: functional, organism-based
Mycobacterium avium [9] = assay: Antimycobacterial activity against isoniazid-resistant Mycobacterium avium at 20 ug/disk by disk diffusion assay; format: functional, organism-based
[10] = tested on: Mycobacterium tuberculosis; assay: Antimycobacterial activity against Mycobacterium tuberculosis at 100 ug/disk by disk diffusion assay; format: functional, organism-based
Mycobacterium avium [11] = assay: Antimycobacterial activity against isoniazid-resistant Mycobacterium avium at 10 ug/disk by disk diffusion assay; format: functional, organism-based
[12] = tested on: Mycobacterium tuberculosis; assay: Antimycobacterial activity against Mycobacterium tuberculosis at 10 ug/disk by disk diffusion assay; format: functional, organism-based

GENTAMICIN showed an MIC (Pseudomonas aeruginosa [1]) of 0.6 µg/mL, an MIC (Staphylococcus aureus [2]) of 0.6 µg/mL and an MIC (Escherichia coli [3]) of 1.25 µg/mL. It also gave an MIC (Escherichia coli [4]) of 0.6 µg/mL, an MIC (Staphylococcus aureus [5]) of over 10 µg/mL and an MIC (Pseudomonas aeruginosa [6]) of 1.25 µg/mL. The MIC (Bacillus subtilis) was 1.25 µg/mL.

CC[C@H](O)C#CC#C[C@@H](O)/C=C\CCCCCCCCOC(C)=O [OPLOPANDIOL ACETATE] was tested, and the MIC (Pseudomonas aeruginosa [1]) was over 50 µg/mL, the Activity (Mycobacterium avium [7]) was “Active” and the MIC (Staphylococcus aureus [2]) was 50 µg/mL. The MIC (Candida albicans) was over 50 µg/mL, the Activity [8] was “Active” and the Activity (Mycobacterium avium [9]) was “Active”. For the same molecule, the MIC (Escherichia coli [3]) was over 50 µg/mL, the Activity [10] was “Active” and the MIC (Escherichia coli [4]) was over 50 µg/mL. The MIC (Staphylococcus aureus [5]) was over 50 µg/mL, the MIC (Pseudomonas aeruginosa [6]) was over 50 µg/mL and the MIC (Bacillus subtilis) was 25 µg/mL.

For NNC(=O)c1ccncc1, the Activity (Mycobacterium avium [7]) was “inactive”, the Activity (Mycobacterium avium [11]) was “inactive” and the Activity [12] was “Active”. The Activity [8] was “Active”, the Activity (Mycobacterium avium [9]) was “inactive” and the Activity [10] was “Active”.

For C=C[C@H](O)C#CC#C[C@@H](O)/C=C\CCCCCCCCOC(C)=O, the MIC (Pseudomonas aeruginosa [1]) was over 50 µg/mL, the Activity (Mycobacterium avium [7]) was “Active” and the MIC (Staphylococcus aureus [2]) was 50 µg/mL (≈ 150 µM). For the same molecule, the MIC (Candida albicans) was over 50 µg/mL, the Activity (Mycobacterium avium [9]) was “Active” and the MIC (Escherichia coli [3]) was over 50 µg/mL. The Activity [10] was “Active”, the MIC (Escherichia coli [4]) was over 50 µg/mL and the MIC (Staphylococcus aureus [5]) was over 50 µg/mL. For the same molecule, the MIC (Pseudomonas aeruginosa [6]) was over 50 µg/mL and the MIC (Bacillus subtilis) was 25 µg/mL (≈ 75.2 µM).

CCCCCCC/C=C\[C@H](O)C#CC#C[C@@H](O)CC [OPLOPANDIOL] was tested, and the MIC (Pseudomonas aeruginosa [1]) was over 50 µg/mL, the Activity (Mycobacterium avium [7]) was “Active” and the MIC (Staphylococcus aureus [2]) was 6.25 µg/mL (≈ 23.8 µM). For the same molecule, the MIC (Candida albicans) was 12.5 µg/mL (≈ 47.6 µM), the MIC (Escherichia coli [3]) was over 50 µg/mL and the Activity [10] was “Active”. It also gave an MIC (Escherichia coli [4]) of 6.25 µg/mL (≈ 23.8 µM), an MIC (Staphylococcus aureus [5]) of 6.25 µg/mL (≈ 23.8 µM) and an MIC (Pseudomonas aeruginosa [6]) of over 50 µg/mL. The MIC (Bacillus subtilis) was 6.25 µg/mL (≈ 23.8 µM).

For COc1cccc(OC)c1C(=O)N[C@@H]1C(=O)N2[C@@H]1SC(C)(C)[C@@H]2C(=O)O [METHICILLIN], the MIC (Pseudomonas aeruginosa [1]) was 3.1 µg/mL (≈ 8.15 µM), the MIC (Staphylococcus aureus [2]) was 1.6 µg/mL (≈ 4.21 µM) and the MIC (Candida albicans) was over 100 µg/mL. The MIC (Escherichia coli [3]) was over 100 µg/mL, the MIC (Escherichia coli [4]) was 1.6 µg/mL (≈ 4.21 µM) and the MIC (Pseudomonas aeruginosa [6]) was over 100 µg/mL. The MIC (Bacillus subtilis) was 100 µg/mL (≈ 263 µM).

With C=C[C@@H](O)C#CC#C[C@@H](O)/C=C\CCCCCCC [FALCARINDIOL] the MIC (Pseudomonas aeruginosa [1]) was 50 µg/mL (≈ 192 µM), the Activity (Mycobacterium avium [7]) was “Active” and the MIC (Staphylococcus aureus [2]) was 25 µg/mL (≈ 96 µM). The MIC (Candida albicans) was 25 µg/mL (≈ 96 µM), the Activity (Mycobacterium avium [9]) was “Active” and the MIC (Escherichia coli [3]) was over 50 µg/mL. The Activity [10] was “Active”, the MIC (Escherichia coli [4]) was 25 µg/mL (≈ 96 µM) and the MIC (Staphylococcus aureus [5]) was 25 µg/mL (≈ 96 µM). For the same molecule, the MIC (Pseudomonas aeruginosa [6]) was over 50 µg/mL and the MIC (Bacillus subtilis) was 6.25 µg/mL (≈ 24 µM).

In the case of C=C[C@H](O)C#CC#CC/C=C\CCCCCCC [FALCARINOL], the MIC (Pseudomonas aeruginosa [1]) is reported as 6.25 µg/mL (≈ 25.6 µM), the Activity (Mycobacterium avium [7]) is reported as “Active” and the MIC (Staphylococcus aureus [2]) is reported as 3.1 µg/mL (≈ 12.7 µM). The MIC (Candida albicans) was 6.25 µg/mL (≈ 25.6 µM), the Activity [8] was “Active” and the Activity (Mycobacterium avium [9]) was “Active”. The MIC (Escherichia coli [3]) was over 50 µg/mL, the Activity [10] was “Active” and the MIC (Escherichia coli [4]) was 6.25 µg/mL (≈ 25.6 µM). For the same molecule, the MIC (Staphylococcus aureus [5]) was 3.1 µg/mL (≈ 12.7 µM), the MIC (Pseudomonas aeruginosa [6]) was over 50 µg/mL and the MIC (Bacillus subtilis) was 3.1 µg/mL (≈ 12.7 µM).
